# Measurements from ChEMBL document CHEMBL1125358, “Effect of conformational mobility and hydrogen-bonding interactions on the selectivity of some guanidinoaryl-substituted mechanism-based inhibitors of trypsin-like serine proteases” (J Med Chem, 1992).
# “And” between values parts separate entries of the source, which are not always exact repeats. Equal values may be shown once.
# Legend:
# [1] = target: T1, Chymotrypsinogen A (Bos taurus, UniProt P00766); assay: Compound was tested for the rate constant of deacylation against alpha-chymotrypsin; kd was too fast to measure
# [2] = target: T2, Trypsin II (Bos taurus) (UniProt Q29463); assay: Compound was tested for the rate constant of acylation against the enzyme trypsin
# T2 sequence (whole entry): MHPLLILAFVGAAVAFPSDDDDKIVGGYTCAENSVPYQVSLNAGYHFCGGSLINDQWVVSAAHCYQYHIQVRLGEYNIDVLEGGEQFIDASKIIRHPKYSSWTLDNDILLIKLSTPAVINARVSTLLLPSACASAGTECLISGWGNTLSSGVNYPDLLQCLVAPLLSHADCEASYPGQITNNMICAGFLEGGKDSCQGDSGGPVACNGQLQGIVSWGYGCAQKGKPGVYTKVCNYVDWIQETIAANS
# [3] = target: T1, Chymotrypsinogen A; assay: Compound was tested for its binding affinity against the enzyme alpha-chymotrypsin
# [4] = target: T3, Serine protease 1 (Bos taurus, UniProt P00760); assay: Compound was tested for its binding affinity against the enzyme trypsin
# T3 sequence (P00760 whole entry): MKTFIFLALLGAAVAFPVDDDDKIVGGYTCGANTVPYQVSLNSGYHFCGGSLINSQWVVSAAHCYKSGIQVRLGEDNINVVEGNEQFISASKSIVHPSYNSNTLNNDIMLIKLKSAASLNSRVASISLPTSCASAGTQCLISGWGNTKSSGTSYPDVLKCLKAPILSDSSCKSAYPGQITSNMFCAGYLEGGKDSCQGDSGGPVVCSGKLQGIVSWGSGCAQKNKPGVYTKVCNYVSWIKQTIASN
# [5] = target: T4, Urokinase-type plasminogen activator (Homo sapiens, UniProt P00749); assay: Compound was tested for the rate constant of deacylation against Urokinase-type plasminogen activator
# [6] = target: T3, Serine protease 1; assay: Compound was tested for the rate constant of deacylation against the enzyme trypsin
# [7] = target: T4, Urokinase-type plasminogen activator; assay: Compound was tested for the rate constant of deacylation against the enzyme Urokinase-type plasminogen activator
# [8] = target: T5, Plasminogen (Homo sapiens, UniProt P00747); assay: Compound was tested for its binding affinity against the enzyme plasmin
# [9] = target: T6, Prothrombin (Homo sapiens, UniProt P00734); assay: Compound was tested for its binding affinity against the enzyme thrombin
# [10] = target: T5, Plasminogen; assay: Compound was tested for the rate constant for deacylation against plasmin; kd was too fast to measure
# [11] = target: T6, Prothrombin; assay: Compound was tested for the rate constant of acylation against the enzyme thrombin
# [12] = target: T5, Plasminogen; assay: Compound was tested for the rate constant of acylation against the enzyme plasmin
# [13] = target: T4, Urokinase-type plasminogen activator; assay: Compound was tested for its binding affinity against the enzyme Urokinase-type plasminogen activator
# [14] = target: T4, Urokinase-type plasminogen activator
# Description: Compound was tested for the rate constant of acylation against the enzyme Urokinase-type plasminogen activator
# [15] = target: T6, Prothrombin; assay: Compound was tested for the rate constant of deacylation against thrombin
# [16] = target: T7, Serine protease 1 (Bos taurus) (UniProt P00760)
# T7 sequence (whole entry): T3 sequence (P00760 whole entry)
# [17] = target: T4, Urokinase-type plasminogen activator; assay: Compound was tested for the rate constant of deacylation against the enzyme Urokinase-type plasminogen activator; kd was too fast to measure
# [18] = target: T4, Urokinase-type plasminogen activator; assay: Compound was tested for the rate constant of deacylation against Urokinase-type plasminogen activator
# [19] = target: Tissue-type plasminogen activator (Homo sapiens, UniProt P00750); assay: Compound was tested for its binding affinity against the enzyme Tissue plasminogen activator
# Sequence of Tissue-type plasminogen activator (P00750 whole entry): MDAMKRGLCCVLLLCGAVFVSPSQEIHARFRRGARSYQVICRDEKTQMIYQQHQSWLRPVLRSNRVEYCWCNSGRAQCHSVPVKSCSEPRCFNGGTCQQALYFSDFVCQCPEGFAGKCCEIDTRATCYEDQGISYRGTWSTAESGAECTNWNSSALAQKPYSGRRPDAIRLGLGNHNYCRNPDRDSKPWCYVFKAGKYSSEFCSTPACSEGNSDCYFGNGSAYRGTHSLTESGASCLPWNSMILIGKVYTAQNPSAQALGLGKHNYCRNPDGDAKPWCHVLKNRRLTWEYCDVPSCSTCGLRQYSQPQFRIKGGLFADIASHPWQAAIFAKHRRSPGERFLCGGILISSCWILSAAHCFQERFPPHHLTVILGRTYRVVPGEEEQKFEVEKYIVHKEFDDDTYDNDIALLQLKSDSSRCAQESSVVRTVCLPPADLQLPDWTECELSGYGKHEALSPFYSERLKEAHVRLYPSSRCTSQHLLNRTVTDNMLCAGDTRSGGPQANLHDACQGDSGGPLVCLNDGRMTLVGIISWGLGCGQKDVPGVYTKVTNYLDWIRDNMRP
# T5 sequence (P00747 97-580 limits assumed): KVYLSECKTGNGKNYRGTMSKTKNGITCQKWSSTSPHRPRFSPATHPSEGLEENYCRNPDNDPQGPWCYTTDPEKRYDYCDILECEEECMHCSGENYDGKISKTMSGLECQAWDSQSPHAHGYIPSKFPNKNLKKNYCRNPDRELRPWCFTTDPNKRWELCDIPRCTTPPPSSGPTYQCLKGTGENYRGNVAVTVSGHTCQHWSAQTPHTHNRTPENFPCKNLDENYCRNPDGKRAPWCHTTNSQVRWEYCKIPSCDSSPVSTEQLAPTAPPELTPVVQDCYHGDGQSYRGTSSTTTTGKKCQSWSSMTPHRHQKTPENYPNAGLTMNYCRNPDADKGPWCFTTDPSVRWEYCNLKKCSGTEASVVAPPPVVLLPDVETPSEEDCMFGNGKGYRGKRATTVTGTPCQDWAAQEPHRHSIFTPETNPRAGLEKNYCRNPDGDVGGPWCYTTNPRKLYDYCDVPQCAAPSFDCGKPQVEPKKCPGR
# T5 sequence (P00747 581-810 limits assumed): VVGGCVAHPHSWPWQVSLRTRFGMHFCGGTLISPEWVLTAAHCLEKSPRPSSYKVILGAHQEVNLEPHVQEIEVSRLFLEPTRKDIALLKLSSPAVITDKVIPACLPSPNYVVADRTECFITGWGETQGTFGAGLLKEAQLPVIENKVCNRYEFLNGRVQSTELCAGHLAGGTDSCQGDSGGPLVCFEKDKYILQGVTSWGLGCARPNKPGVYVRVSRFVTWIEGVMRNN
Ki [3] [µM],Ki [4],Kd [5] [s⁻¹],Kd [6] [s⁻¹],Kd [7] [s⁻¹],Ki [8] [µM],Ki [9] [µM],Ka [11] [min⁻¹],Ka [12] [min⁻¹],Ki [13] [µM],Ka [14] [min⁻¹],Kd [15] [s⁻¹],Ka [16] [min⁻¹],SMILES,also measured
–,–,–,–,0.000733,466,37.9,5.58,57,0.35,9.8,0.0001,–,C=C1CCC(c2ccc(CNC(=N)N)cc2)C(=O)O1 (centres undefined),Kd [10]: Fast
–,0.08 µM,–,–,–,1.19,14.8,27.2,10.2,–,7.56,0.000217,18.4,N=C(N)NCc1ccc(C2CC/C(=C/I)OC2=O)cc1 (centres undefined),Ki [19]: 0.12 µM
–,9.4 µM,0.00015,3.3e-05,–,–,–,–,–,0.12,–,–,–,C=C1CC(c2ccc(NC(=N)N)cc2)CC(=O)O1 (centres undefined),–

# More lines, now with the values behind:
SMILES,Ki [3] [µM],Ki [4],Kd [5] [s⁻¹],Kd [6] [s⁻¹],Kd [7] [s⁻¹],Ki [8] [µM],Ki [9] [µM],Ka [11] [min⁻¹],Ka [12] [min⁻¹],Ki [13] [µM],Ka [14] [min⁻¹],Kd [15] [s⁻¹],Ka [16] [min⁻¹],also measured
C=C1CC(c2ccc(NC(=N)N)cc2)C(NC(=O)c2ccccc2)C(=O)O1 (centres undefined),0.46,10 µM,3.3e-05,0.00025,–,–,–,–,–,–,–,–,–,Kd [1]: Fast; Ka [2]: 10.2 min⁻¹
N=C(N)Nc1ccc(C2CC(=O)O/C(=C\I)C2)cc1 (centres undefined),–,4.28 µM,–,0.00033,–,–,–,–,–,7.83,2.61,–,0.54,Kd [17]: Fast
N=C(N)Nc1ccc(C2C/C(=C/I)OC(=O)C2NC(=O)c2ccccc2)cc1 (centres undefined),0.17,0.67 µM and 2.76 µM,–,–,1.33e-05,–,–,–,–,18.7,–,–,–,Kd [18]: 1.3e-05 s⁻¹
